Consider two molecules from patent US20120045532A1, “Anticancer Methods Employing Extracts of Gleditsia sinensis Lam” (priority 2008, published 2012).

SMILES strings stand for the structures.

The subject of one data set is Hs578T. As to the kind of experiment: Annexin V/PI binding (cell death/apoptosis), flow cytometry. Format: cell-based. The following applies: for effect of addition of cholesterol on induced death: Hs578T cells, 70 μg/ml BN107, 0.2 mg/ml BZL101 or 500 nM taxol with 500 μM cholesterol, 18 hours. As for the experimental part:
(§1) ERα plays a role in BN107-induced apoptosis. In Table 1-1 below are the results of experiments in which cells were treated with BN107 and harvested after 24 hours for analysis of Annexin V/PI binding. Three independent experiments were conducted for each data point.
(§2) BN107 induced apoptosis selectively in ER− breast cancer cells and introducing expression of ERα protected these cells against BN107 Prior studies have shown that ethanolic extract of G. sinensis is cytotoxic to a number tumor cell lines by inducing cytotoxicity. A wider panel of solid-tumor cell lines, derived from various origins, is analyzed herein. Sub-confluent cultures were treated with 70 μg/ml of BN107 for 18 hours and cell death were analyzed by annexinV/PI binding followed by flow cytometry. […] It is evident that BN107 induced cell death in tumor lines derived from various origins to different extent. […] These experiments sought to determine if there was correlative relationship between genotypic characteristics of the cells versus sensitivity. As shown in Table 2-1, it appeared that cells lacking ER expression were highly sensitive to BN107; while cells containing functional ER were relatively insensitive to BN107 at this dose. The death induced by BN107 in ER− lines was apoptotic in nature that was primarily mediated by the mitochondrial pathway, as evident from Annexin V binding, dissipation of mitochondrial potential, cytosolic release of cytochrome C, activation of caspases, and DNA fragmentation.
(§3) All the cell lines used were purchased from ATCC. Cells were treated with 70 μg/ml of BN107 (calculated based on freeze-dry weight). The dose is determined based on the EC50 of each batch in killing 50% of Hs578T or MDA-MB-231 cells 18 hours after treatment.
(§4) Cell survival was measured using FACS analysis of AnnexinV-alexa 488/PI bound cells following the manufacturer's instruction (Invitrogen). Mitochondrial transmembrane potential (MTP) was determined using JC-1 dye (Invitrogen) in live cells and analyzed using flow cytomery. Caspase 3 and 9 activities were measured using specific caspase peptide inhibitors (Calbiochem) conjugated to FITC followed by flow cytometry analysis. Cytosolic cytochrome C release were determined by separating the cytosol from mitochondria (Biovision) and cytochrome C released in cytosol was shown using immunoblotting.
A general note: A flow cytometer gives signals particle by particle.

In a further data set the test system is MDA-MB-231. The data set is described as above. Type of data set: cell-based. The following applies: Homo sapiens, MDA-MB-231, read-out: EC50 for MDA-MB-231. As to the method: as §1, §2, §3, §4
The test system of data set [1] is phospho-mTOR, total mTOR, RAPTOR and RICTOR in LR fractions of Hs578T. Nature of the data set: Western blot of lipid raft fractions: mTOR complex components. Format: cell-based, human. The following applies: Hs578T cells; 70 μg/ml BN107 or 110 μM oleanolic acid, 4 hours. As for the experimental part:
(§5) As Akt/mTOR, the main survival signaling pathway, has been implicated to take place on LRs, it was hypothesized that BN107 and similarly OA disrupted the signaling of these complexes on LRs. The fractions collected from sucrose-density—centrifugation of BN107 or OA treated Hs578T or MCF7 lysates were dialyzed and concentrated. Same amounts of protein from LR (fractions 3-5), non-LR plasma membrane (f6), and cytosolic (f8) fractions were analyzed by Western blotting. The levels of RAPTOR, Akt, 4E-BP, p70S6 kinase were first observed in these collected fractions; and it was confirmed that they were all enriched in the LR fractions (data not shown). The levels of phospho-mTOR, total mTOR; as well as the mTORC1 and mTORC2 complex partner RAPTOR and RICTOR, respectively, were then measured in BN107 or OA treated Hs578T cells. […]
(§6) A modified procedure for density gradient centrifugation using Nycodenz from Sigma-Aldrich (St. Louis, Mo.) was used to fractionate Triton X-100-soluble and Triton X-100-insoluble membrane and cytoskeletal subdomains and complexes. […] Total of 10 fractions and control input lysate were analyzed for the distribution of proteins by Western blot. […] The fractions were dialyzed against PBS to remove the gradient sugars and concentrated using Amicon Ultra 4 centrifugal filter device (Millipore) before protein quantitation (BCA reagent, Thermo Fisher). […]
A general note: A western blot detects proteins with antibodies after separation by electrophoresis.

For a further data set, the system named is mTORC1. Nature of the data set: mTORC1 activity by phosphorylation of 4E-BP and p70S6 kinase (Western). Type of data set: cell-based, human. As to conditions: lipid raft region of Hs578T cells; 70 μg/ml BN107 or 110 μM oleanolic acid, 4 hr. As to the method:
as §5, §6

Another data set concerns mTORC2 / Akt. Nature of the data set: Ser473-phosphorylated Akt in LR fractions as read-out for mTORC2 activity (Western). Format: cell-based, human. The following applies: Hs578T cells; 70 μg/ml BN107 or 110 μM oleanolic acid, 4 hr. As to the method:
(§7) In addition, as the same pool of mTOR/FRAP1 polypeptide is shared between the mTORC1 and mTORC2 complex and the mTORC2 complex partner RICTOR was decreased in the lipid rafts of BN107 or OA-treated Hs578T cells, it was hypothesized that mTORC2 activity would be inhibited as well. Given the recent discovery that mTORC2 is the main kinase phosphorylating Akt at Ser473, and Akt signaling has been implicated to take place on LRs, the level of Ser473 phosphorylated Akt was analyzed in LR fractions as a read-out for mTORC2 activity. […] Conversely, addition of exogenous cholesterol restored these signaling events disrupted by BN107 or OA (FIG. 8C). […] The levels of transferrin receptor (TR) marking the non-LR plasma membrane region and GAPDH marking the cytosolic fractions were not affected in both cell lines by either BN107 or OA treatment.
as §6

Data set [2] deals with mTORC1/mTORC2/Akt signaling in MCF7 cells. Nature of the data set: Western blot of lipid raft fractions, resistant cells. Type of data set: cell-based, human. As for the experimental part:
as §7, §6

Data set [3] has as its system mTOR/FRAP1, phospho-mTOR, RAPTOR, RICTOR, Akt in Hs578T cells. Nature of the data set: Western analysis of total cellular lysate. Type of data set: cell-based, human. The following applies: ER− Hs578T cells (data not shown). From the text:
To ascertain that these signaling changes occurred at LRs indeed translated into the whole-cell level. […] Consistent with the data shown within the lipid raft fractions, levels of total mTOR/FRAP1, phospho-mTOR, RAPTOR, and RICTOR were all decreased within one hour of BN107 treatment, resulting in minimal mTORC1 and mTORC2 activities to phosphorylate 4E-BP and p70S6 kinase, and Ser473-Akt, respectively. The decrease in total protein levels of mTOR/FRAP1, RAPTOR and RICTOR occurred post-transcriptionally as the levels of their corresponding mRNAs were not modulated by BN107 or OA treatment in the sensitive ER− Hs578T cells (data not shown). […] These effects were presumably due to their cholesterol binding/stripping effect on LRs, as addition of exogenous cholesterol seemed to reverse these events (FIG. 8C).
Cell extracts, obtained by scraping cells in PBS in the presence of protein phosphatase and protease inhibitors and lysing with ice-cold RIPA buffer, were loaded on the SDS-PAGE at 25-30 μg per lane. Same amounts of proteins […] were precipitated from lipid raft fractions and loaded onto 3-7% TA gel or 4-12% Bis-Tris gels. Separated proteins were transferred onto nitrocellulose membrane (iBlot, Invitrogen) and used for probing with specific antibodies following manufacturer's instruction. Blots were reused several times after mild stripping (Restore, ThermoFisher) when necessary. […]

The conditions of data set [4]: animals; cited from earlier work.

Turning to `CC(=O)O[C@H]1C(=O)[C@@]2(C)[C@H]([C@H](OC(=O)c3ccccc3)[C@]3(O)C[C@H](OC(=O)[C@H](O)[C@@H](NC(=O)c4ccccc4)c4ccccc4)C(C)=C1C3(C)C)[C@]1(OC(C)=O)CO[C@@H]1C[C@@H]2O` [taxol, paclitaxel, reference compound], the “effect of addition of cholesterol on induced death” value with Hs578T was “no effect”.
As to `CC1(C)CC[C@]2(C(=O)O)CC[C@]3(C)C(=CC[C@@H]4[C@@]5(C)CC[C@H](O)C(C)(C)[C@@H]5CC[C@]43C)[C@@H]2C1` [OA, oleanolic acid], in the data set with Hs578T (Homo sapiens, Hs-578T, read-out: EC50 for Hs578T), the EC50 (usually the midpoint of the concentration-response curve) was 110 µM. The “effect of addition of cholesterol on induced death” value in the data set on Hs578T is “protected cells specifically and completely”. Also, in the data set on MDA-MB-231, the EC50 amounted to 125 µM. The “levels of phospho-mTOR, total mTOR, RAPTOR and RICTOR in LR fractions” value in data set [1] is “significantly decreased”. Besides, the “mTORC1 activity (phosphorylation of 4E-BP and p70S6 kinase)” value with mTORC1 is recorded as “greatly inhibited”. Further, in the data set on mTORC2 / Akt, the “level of Ser473-phosphorylated Akt in LR fractions (mTORC2 read-out)” value was “decreased” and the “total level of Akt on LRs” value was “no effect”. Moreover, the “changes in mTORC1/mTORC2/Akt signaling on LRs” value in data set [2] was “None of these changes were observed”. For the same molecule, the “mRNA levels of mTOR/FRAP1, RAPTOR and RICTOR” value in data set [3] was “not modulated”. The “toxicity at anti-tumor doses” value in data set [4] is listed as “minimal toxicity”.
